Results: patent US20260130901A1, “CGRP RECEPTOR ANTAGONIST FOR THE TREATMENT OF MIGRAINE” (ALLERGAN PHARMACEUTICALS INTERNATIONAL LIMITED, priority 2022, published 2026)

Assays:
Format in all cases: in vivo, human
[1] = test system: participants with migraine (qualifying prodrome events); assay: Phase 3 crossover study: ability to function normally (Functional Disability Scale); settings: 100 mg in prodrome, mITT
Experimental: (§1) A phase 3, multicenter, randomized, double-blind, placebo-controlled, crossover study was carried out to evaluate the efficacy, safety, and tolerability of oral ubrogepant in the acute treatment of migraine when administered during the prodrome. The study evaluated whether treatment during the initial phase of a migraine attack (i.e., the prodrome or premonitory phase) prior to the onset of headache, can attenuate the severity of the headache phase and reduce disability.
(§2) Eligible participants were randomized (1:1) to treatment sequences A or B in this crossover study. Participants randomized to Treatment Sequence A received placebo to treat their first qualifying prodrome event and ubrogepant 100 mg to treat their second qualifying prodrome event. For those randomized to Treatment Sequence B, they received the reverse: ubrogepant 100 mg to treat their first qualifying prodrome event and placebo to treat their second qualifying prodrome event.
The primary efficacy endpoint was the absence of a headache of moderate/severe intensity within 24 hours after taking double-blind study intervention during the prodrome. The secondary efficacy endpoints were the absence of a headache of moderate or severe intensity within 48 hours, ability to function normally over 24 hours, and absence of a headache of any intensity within 24 hours after taking double blind study interventions during the prodrome.
A responder for ability to function normally is a participant having a score of 0 (no disability, able to function normally) on the Functional Disability Scale (FDS), and a non-responder is one having a score of 1 (Mildly impaired, can still do everything but with difficulty) to 3 (Severely impaired, cannot do all or most things, bed rest may be necessary).

[2] = test system: participants with migraine (qualifying prodrome events); assay: Phase 3 crossover study: absence of aura at timepoints post dose; settings: 100 mg in prodrome, mITT
Experimental: as §1, §2
N1 is the number of patients with non-missing aura presence assessment at timepoint.

[3] = test system: participants with migraine (qualifying prodrome events); assay: Phase 3 crossover study: safety and tolerability, adverse events (safety population)
Experimental: as §1, §2
Participant flow is illustrated in FIG. 2. The safety population included all treated participants who took at least one administration of study drug. The modified intent-to-treat (mITT) population included all randomized participants with at least one assessment of headache occurrence within 24 hours after taking double-blind study drug for at least one qualifying prodrome event. The most common reasons for failure to meet inclusion criteria were: lack of 3 to 16 recorded qualifying prodrome events during screening (144 of 317), failure to report headache of any intensity within 1 to 6 hours following at least 75% of qualifying prodrome events (123 of 317), and participant provided a negative response for the ability (by history) to identify migraine attacks in which prodromal symptoms were present and reliably (at least 75% of the time) followed by headache within 1 to 6 hours (23 of 317
Tables 20 and 21 provide an overall summary of adverse events during the double-blind treatment period for the safety population.
The most common TEAEs (≥2% in either treatment group) within 48 hours following administration of study intervention were nausea (placebo 15 of 462 [3.2%], ubrogepant 23 of 456 [5.0%]); dizziness (placebo 12 of 462 [2.6%], ubrogepant 11 of 456 [2.4%]), fatigue (placebo 7 of 462 [1.5%], ubrogepant 12 of 456 [2.6%]) and somnolence (placebo 5 of 462 [1.1%], ubrogepant 11 of 456 [2.4%]). Nausea (placebo 3.7%, ubrogepant 5.3%) was also the most common TEAE within 30 days following administration of study intervention.

[4] = 100 mg, within 48 hours following administration
[5] = 100 mg, within 48 hours following administration, safety population
[6] = ubrogepant 100 mg (N = 456), within 48 hours following administration, safety population
[7] = ubrogepant 100 mg (N = 456), within 30 days following administration, safety population

In the case of `C[C@@H]1[C@H](c2ccccc2)C[C@H](NC(=O)c2cnc3c(c2)C[C@@]2(C3)C(=O)Nc3ncccc32)C(=O)N1CC(F)(F)F` [Ubrogepant, (3′S)—N-((3S,5S,6R)-6-methyl-2-oxo-5-phenyl-1-(2,2,2-trifluoroethyl)piperidin-3-yl)-2′-oxo-1′,2′,5,7-tetrahydrospiro[cyclopenta[b]pyridine-6,3′-pyrrolo[2,3-b]pyridine]-3-carboxamide], the “Ability to function normally, Nonresponder (%)” value (“Ability … Nonresponder (%)” below) ([1]; 1 hour post dose) is reported as “(74.4) %”, the “Ability to function normally, Odds Ratio vs. Placebo” value ([1]; 1 hour post dose) is reported as 1.29 and the “Ability to function normally, Responder (%)” value ([1]; 1 hour post dose) is reported as “(25.6) %”. For the same molecule, the “Ability … Nonresponder (%)” value ([1]; 2 hours post dose) was “(63.0) %”, the “Ability to function normally, Odds Ratio vs. Placebo” value ([1]; 2 hours post dose) was 1.73 and the “Ability to function normally, Responder (%)” value ([1]; 2 hours post dose) was “(37.0) %”. For the same molecule, the “Ability to function normally, Responder (%)” value ([1]; 2 hours post dose, listed as ubrogepant) was 37.0%, the “Ability … Nonresponder (%)” value ([1]; 3 hours post dose) was “(51.7) %” and the “Ability to function normally, Odds Ratio vs. Placebo” value ([1]; 3 hours post dose) was 1.71. For the same molecule, the “Ability to function normally, Responder (%)” value ([1]; 3 hours post dose) was “(48.3) %”, the “Ability … Nonresponder (%)” value ([1]; 4 hours post dose) was “(41.0) %” and the “Ability to function normally, Odds Ratio vs. Placebo” value ([1]; 4 hours post dose) was 1.97. For the same molecule, the “Ability to function normally, Responder (%)” value ([1]; 4 hours post dose) was “(59.0) %”, the “Ability … Nonresponder (%)” value ([1]; 6 hours post dose) was “(32.7) %” and the “Ability to function normally, Odds Ratio vs. Placebo” value ([1]; 6 hours post dose) was 1.78. For the same molecule, the “Ability to function normally, Responder (%)” value ([1]; 6 hours post dose) was “(67.3) %”, the “Ability … Nonresponder (%)” value ([1]; 8 hours post dose) was “(25.0) %” and the “Ability to function normally, Odds Ratio vs. Placebo” value ([1]; 8 hours post dose) was 1.84. The “Ability to function normally, Responder (%)” value ([1]; 8 hours post dose) was “(75.0) %”, the “Ability … Nonresponder (%)” value ([1]; 24 hours post dose) was “(11.1) %” and the “Ability to function normally, Odds Ratio vs. Placebo” value ([1]; 24 hours post dose) was 1.41. For the same molecule, the “Ability to function normally, Responder (%)” value ([1]; 24 hours post dose) was “(88.9) %”, the “Ability to function normally over 24 hours, Geometric Mean Odds Ratio vs. Placebo” value ([1]; overall, all timepoints through 24 hours) was 1.66 and the “Absence of aura, Nonresponder (%)” value ([2]; 48 Hours post dose) was “(2.6) %”. The “Absence of aura, OR vs placebo” value ([2]; 48 Hours post dose) was 3.05, the “Absence of aura, Responder (%)” value ([2]; 48 Hours post dose) was “(97.4) %” and the “Absence of aura, Nonresponder (%)” value ([2]; 1 hour post dose) was “(38.3) %”. The “Absence of aura, OR vs placebo” value ([2]; 1 hour post dose) was 0.99, the “Absence of aura, Responder (%)” value ([2]; 1 hour post dose) was “(61.7) %” and the “Absence of aura, Nonresponder (%)” value ([2]; 2 hours post dose) was “(28.1) %”. For the same molecule, the “Absence of aura, OR vs placebo” value ([2]; 2 hours post dose) was 1.13, the “Absence of aura, Responder (%)” value ([2]; 2 hours post dose) was “(71.9) %” and the “Absence of aura, Nonresponder (%)” value ([2]; 3 hours post dose) was “(23.0) %”. For the same molecule, the “Absence of aura, OR vs placebo” value ([2]; 3 hours post dose) was 0.96, the “Absence of aura, Responder (%)” value ([2]; 3 hours post dose) was “(77.0) %” and the “Absence of aura, Nonresponder (%)” value ([2]; 4 hours post dose) was “(19.1) %”. The “Absence of aura, OR vs placebo” value ([2]; 4 hours post dose) was 1.12, the “Absence of aura, Responder (%)” value ([2]; 4 hours post dose) was “(80.9) %” and the “Absence of aura, Nonresponder (%)” value ([2]; 6 hours post dose) was “(15.3) %”. The “Absence of aura, OR vs placebo” value ([2]; 6 hours post dose) was 1.05, the “Absence of aura, Responder (%)” value ([2]; 6 hours post dose) was “(84.7) %” and the “Absence of aura, Nonresponder (%)” value ([2]; 8 hours post dose) was “(10.5) %”. The “Absence of aura, OR vs placebo” value ([2]; 8 hours post dose) was 1.10, the “Absence of aura, Responder (%)” value ([2]; 8 hours post dose) was “(89.5) %” and the “Absence of aura, Nonresponder (%)” value ([2]; 24 hours post dose) was “(5.3) %”. The “Absence of aura, OR vs placebo” value ([2]; 24 hours post dose) was 1.48, the “Absence of aura, Responder (%)” value ([2]; 24 hours post dose) was “(94.7) %” and the “Safety results” value ([3]; 100 mg in prodrome) was “generally consistent with the known safety profile of ubrogepant”. For the same molecule, the “Tolerability” value ([3]; 100 mg in prodrome) was “well-tolerated”, the “nausea, fatigue, dizziness, and somnolence, % of participants reporting” value ([3]; 100 mg in prodrome) was no more than 5% and the “TEAE dizziness, % of participants” value [3, 4] was 2.4%. The “TEAE fatigue, % of participants” value [3, 4] was 2.6%, the “TEAE nausea, % of participants” value [3, 4] was 5.0% and the “TEAE somnolence, % of participants” value [3, 4] was 2.4%. For the same molecule, the “Adverse event leading to discontinuation (ADO), % of participants” value [3, 5] was “(0.0) %”, the “Death, % of participants” value [3, 5] was “(0.0) %” and the “Treatment-emergent Serious adverse events (TESAE), % of participants” value [3, 5] was “(0.0) %”. For the same molecule, the “Treatment-emergent adverse events (TEAE), % of participants” value [3, 5] was “(16.9) %”, the “Treatment-related TEAEs, % of participants” value [3, 5] was “(13.2) %” and the “Treatment-related TESAEs, % of participants” value [3, 5] was “(0.0) %”. The “TEAE nausea, % of participants” value ([3]; 100 mg, within 30 days following administration) was 5.3%, the “Discontinuation during the DB treatment period due to adverse events” value ([3]; safety population) was “No participant was discontinued” and the “TEAE Dizziness, %” value [3, 6] was “(2.4) %”. The “TEAE Fatigue, %” value [3, 6] was “(2.6) %”, the “TEAE Nausea, %” value [3, 6] was “(5.0) %” and the “TEAE Somnolence, %” value [3, 6] was “(2.4) %”. For the same molecule, the “Adverse event leading to discontinuation (ADO), %” value [3, 7] was “(0.0) %”, the “Death, %” value [3, 7] was “(0.0) %” and the “TEAE Dizziness, %” value [3, 7] was “(2.4) %”. For the same molecule, the “TEAE Fatigue, %” value [3, 7] was “(2.6) %”, the “TEAE Nausea, %” value [3, 7] was “(5.3) %” and the “TEAE Somnolence, %” value [3, 7] was “(2.4) %”. The “Treatment-emergent Serious adverse events (TESAE), %” value [3, 7] was “(0.0) %”, the “Treatment-emergent adverse events (TEAE), %” value [3, 7] was “(19.7) %” and the “Treatment-related TEAEs, %” value [3, 7] was “(13.2) %”. For the same molecule, the “Treatment-related TESAEs, %” value [3, 7] was “(0.0) %”.
